Measured values: patent publication US6737383B1, “Herbicidal oxadiazolidines” (priority 1999, dated 2004)

Experiments:
bedstraw = assay: Test B pre/postemergence bedstraw; type: in vivo, Galium aparine; conditions: Postemergence
Outline: (§1)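 Test chemicals in a non-phytotoxic solvent mixture with surfactant were sprayed preemergence onto planted seeds and postemergence onto plants 2 to 18 cm tall (1- to 4-leaf stage). After twelve to sixteen days in a greenhouse, injury was visually rated against untreated controls from 0 (no effect) to 10 (complete control).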

blackgrass = assay: Test B pre/postemergence blackgrass; type: in vivo, Alopecurus myosuroides
Outline: as §1

surinam grass = assay: Test B pre/postemergence surinam grass; type: in vivo, Brachiaria decumbens
Outline: as §1

cocklebur = assay: Test B pre/postemergence cocklebur; type: in vivo, Xanthium strumarium
Outline: as §1

corn = assay: Test B pre/postemergence corn; type: in vivo, Zea mays
Outline: as §1

crabgrass = assay: Test B pre/postemergence crabgrass; type: in vivo, Digitaria sanguinalis
Outline: as §1

giant foxtail = assay: Test B pre/postemergence giant foxtail; type: in vivo, Setaria faberii
Outline: as §1

morningglory = assay: Test B pre/postemergence morningglory; type: in vivo, Ipomoea hederacea
Outline: as §1

pigweed = assay: Test B pre/postemergence pigweed; type: in vivo, Amaranthus retroflexus
Outline: as §1

rape = assay: Test B pre/postemergence rape; type: in vivo, Brassica napus
Outline: as §1

soybean = assay: Test B pre/postemergence soybean; type: in vivo, Glycine max
Outline: as §1

sugar beet = assay: Test B pre/postemergence sugar beet; type: in vivo, Beta vulgaris
Outline: as §1

velvetleaf = assay: Test B pre/postemergence velvetleaf; type: in vivo, Abutilon theophrasti
Outline: as §1

wheat = assay: Test B pre/postemergence wheat; type: in vivo, Triticum aestivum
Outline: as §1

wild oat = assay: Test B pre/postemergence wild oat; type: in vivo, Avena fatua
Outline: as §1

purple nutsedge = assay: Test B pre/postemergence purple nutsedge; type: in vivo, Cyperus rotundus
Outline: as §1

rice = assay: Test B flood test rice; type: in vivo, Oryza sativa
Outline: (§2)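 Plants were grown to the 2-leaf stage before treatment with test chemical, then held in a greenhouse for twelve to sixteen days. Injury was visually rated against untreated controls on a 0–10 scale, where 0 is no effect and 10 is complete control.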

smallflower flatsedge = assay: Test B flood test smallflower flatsedge; type: in vivo, Cyperus difformis
Outline: as §2

duck salad = assay: Test B flood test duck salad; type: in vivo, Heteranthera limosa
Outline: as §2

bamyardgrass = assay: Test B flood test barnyardgrass; type: in vivo, Echinochloa crus-galli
Outline: as §2

[1] = Postemergence, Rate 250 g/ha, scale 0 to 10, 0 is no effect, 10 is complete control
[2] = Postemergence, Rate 500 g/ha, scale of 0 to 10 where 0 is no effect and 10 is complete control
[3] = Preemergence, Rate 62 g/ha, scale 0 to 10 (0 no effect, 10 complete control)
[4] = Preemergence, Rate 125 g/ha, scale of 0 to 10 where 0 is no effect and 10 is complete control
[5] = Preemergence, Rate 250 g/ha, scale of 0 to 10 where 0 is no effect and 10 is complete control
[6] = Preemergence, Rate 500 g/ha, scale 0 to 10, 0 is no effect, 10 is complete control
[7] = Postemergence, Rate 125 g/ha, scale 0 to 10, 0 is no effect, 10 is complete control
[8] = Rate 62 g/ha, Postemergence, scale of 0 to 10 where 0 is no effect and 10 is complete control
[9] = Preemergence, Rate 250 g/ha, scale 0 to 10, 0 is no effect, 10 is complete control
[10] = Rate 62 g/ha, flood test species, Pre-emergence, visual evaluation after twelve to sixteen days
[11] = Rate 125 g/ha, under heading Pre-emergence, flood test species, visual evaluation after twelve to sixteen days
[12] = Rate 250 g/ha, Pre-emergence, flood-test species, scale 0 to 10, 0 is no effect, 10 is complete control
[13] = Rate 500 g/ha, Pre-emergence, flood test species, scale 0 to 10 (0 no effect, 10 complete control)

CC(C)N(C(=O)n1oc(=O)n(C(C)CCl)c1=O)c1ccccc1 (centres unmarked) [Compound 411]
9: Plant response rating, Blackgrass (blackgrass; [1]) | Blackgrass plant response rating (blackgrass; [2]) | Blackgrass plant response rating (blackgrass; [5]) | B. signalgrass plant response rating (surinam grass; [2]) | Corn plant response rating (corn; [6]) | Plant response rating, Crabgrass (crabgrass; [3]) | Plant response rating, Giant foxtail (giant foxtail; [7]) | Plant response rating, Giant foxtail (giant foxtail; [1]) | Giant foxtail plant response rating (giant foxtail; [2]) | Redroot pigweed plant response rating (pigweed; [2]) | Rape plant response rating (rape; [9]) | Wild oats plant response rating (wild oat; [2]) | S. Flatsedge plant response rating (smallflower flatsedge; [12]) | S. Flatsedge plant response rating (smallflower flatsedge; [13]) | Barnyardgrass plant response rating (bamyardgrass; [12]) | Barnyardgrass plant response rating (bamyardgrass; [13])
6: Plant response rating, Blackgrass (blackgrass; [3]) | Giant foxtail plant response rating (giant foxtail; [8]) | Plant response rating, Morningglory (morningglory; [1]) | Morningglory plant response rating (morningglory; [2]) | Velvetleaf plant response rating (velvetleaf; [2]) | Velvetleaf plant response rating (velvetleaf; [9])
0: Plant response rating, B. signalgrass (surinam grass; [3]) | B. signalgrass plant response rating (surinam grass; [8]) | Plant response rating, Cocklebur (cocklebur; [3]) | Plant response rating, Cocklebur (cocklebur; [4]) | Cocklebur plant response rating (cocklebur; [9]) | Cocklebur plant response rating (cocklebur; [6]) | Plant response rating, Corn (corn; [7]) | Plant response rating, Corn (corn; [1]) | Plant response rating, Corn (corn; [3]) | Corn plant response rating (corn; [8]) | Plant response rating, Morningglory (morningglory; [3]) | Plant response rating, Soybean (soybean; [3]) | Plant response rating, Soybean (soybean; [4]) | Soybean plant response rating (soybean; [9]) | Plant response rating, Wheat (wheat; [3]) | Plant response rating, Wild oats (wild oat; [3]) | Plant response rating, Nutsedge (purple nutsedge; [1]) | Nutsedge plant response rating (purple nutsedge; [2]) | Plant response rating, Nutsedge (purple nutsedge; [3]) | Plant response rating, Nutsedge (purple nutsedge; [4]) | Nutsedge plant response rating (purple nutsedge; [9]) | Plant response rating, Rice (0 to 10 scale, 0 is no effect, 10 is complete control) (rice; [10]) | Rice plant response rating (0 to 10 scale, 0 is no effect, 10 is complete control) (rice; [11]) | Rice plant response rating (rice; [12]) | Rice plant response rating (rice; [13]) | Plant response rating, S. Flatsedge (0 to 10 scale, 0 is no effect, 10 is complete control) (smallflower flatsedge; [10]) | S. Flatsedge plant response rating (0 to 10 scale, 0 is no effect, 10 is complete control) (smallflower flatsedge; [11]) | Plant response rating, Ducksalad (0 to 10 scale, 0 is no effect, 10 is complete control) (duck salad; [10]) | Ducksalad plant response rating (0 to 10 scale, 0 is no effect, 10 is complete control) (duck salad; [11]) | Plant response rating, Barnyardgrass (0 to 10 scale, 0 is no effect, 10 is complete control) (bamyardgrass; [10])
2: Plant response rating, Corn (corn; [4]) | Morningglory plant response rating (morningglory; [9]) | Plant response rating, Rape (rape; [3]) | Plant response rating, Velvetleaf (velvetleaf; [3]) | Nutsedge plant response rating (purple nutsedge; [6]) | Ducksalad plant response rating (duck salad; [12]) | Ducksalad plant response rating (duck salad; [13])
7: Plant response rating, Bedstraw (bedstraw; Rate 250 g/ha, scale 0 to 10, 0 is no effect, 10 is complete control) | Plant response rating, Blackgrass (blackgrass; [4]) | B. signalgrass plant response rating (surinam grass; [5]) | Plant response rating, Redroot pigweed (pigweed; [1]) | Plant response rating, Rape (rape; [1]) | Soybean plant response rating (soybean; [2]) | Sugarbeets plant response rating (sugar beet; [2]) | Wheat plant response rating (wheat; [9])
5: Plant response rating, B. signalgrass (surinam grass; [1]) | Plant response rating, Soybean (soybean; [1]) | Plant response rating, Sugarbeets (sugar beet; [3]) | Plant response rating, Velvetleaf (velvetleaf; [4]) | Plant response rating, Wild oats (wild oat; [4])
1: Plant response rating, Cocklebur (cocklebur; [7]) | Cocklebur plant response rating (cocklebur; [8]) | Plant response rating, Morningglory (morningglory; [4]) | Soybean plant response rating (soybean; [6])
4: Corn plant response rating (corn; [2]) | Plant response rating, Crabgrass (crabgrass; [7]) | Crabgrass plant response rating (crabgrass; [8]) | Morningglory plant response rating (morningglory; [6]) | Plant response rating, Sugarbeets (sugar beet; [1]) | Plant response rating, Velvetleaf (velvetleaf; [1]) | Plant response rating, Wheat (wheat; [4])
8: Bedstraw plant response rating (bedstraw; Rate 500 g/ha, scale of 0 to 10 where 0 is no effect and 10 is complete control) | Corn plant response rating (corn; [9]) | Plant response rating, Crabgrass (crabgrass; [1]) | Crabgrass plant response rating (crabgrass; [2]) | Plant response rating, Redroot pigweed (pigweed; [4]) | Rape plant response rating (rape; [2]) | Plant response rating, Rape (rape; [4]) | Plant response rating, Sugarbeets (sugar beet; [4]) | Sugarbeets plant response rating (sugar beet; [9]) | Sugarbeets plant response rating (sugar beet; [6]) | Velvetleaf plant response rating (velvetleaf; [6]) | Wheat plant response rating (wheat; [2]) | Wild oats plant response rating (wild oat; [9]) | Barnyardgrass plant response rating (0 to 10 scale, 0 is no effect, 10 is complete control) (bamyardgrass; [11])
3: Plant response rating, B. signalgrass (surinam grass; [7]) | Plant response rating, B. signalgrass (surinam grass; [4]) | Plant response rating, Cocklebur (cocklebur; [1]) | Cocklebur plant response rating (cocklebur; [2]) | Plant response rating, Redroot pigweed (pigweed; [3])
10: Blackgrass plant response rating (blackgrass; [6]) | B. signalgrass plant response rating (surinam grass; Preemergence, Rate 500 g/ha, scale of 0 to 10 where 0 is no effect and 10 is complete control) | Plant response rating, Crabgrass (crabgrass; [4]) | Crabgrass plant response rating (crabgrass; [9]) | Crabgrass plant response rating (crabgrass; [6]) | Plant response rating, Giant foxtail (giant foxtail; [3]) | Plant response rating, Giant foxtail (giant foxtail; [4]) | Giant foxtail plant response rating (giant foxtail; [9]) | Giant foxtail plant response rating (giant foxtail; [6]) | Redroot pigweed plant response rating (pigweed; [9]) | Redroot pigweed plant response rating (pigweed; [6]) | Rape plant response rating (rape; [6]) | Wheat plant response rating (wheat; [6]) | Wild oats plant response rating (wild oat; [6])
